Seven compounds from publication PMC7236056 (ACS Medicinal Chemistry Letters, 2020) can be followed below.

The target in one experiment is T1, hPPARγ (Homo sapiens, UniProt P37231).
T1 sequence (P37231 238-503 limits assumed): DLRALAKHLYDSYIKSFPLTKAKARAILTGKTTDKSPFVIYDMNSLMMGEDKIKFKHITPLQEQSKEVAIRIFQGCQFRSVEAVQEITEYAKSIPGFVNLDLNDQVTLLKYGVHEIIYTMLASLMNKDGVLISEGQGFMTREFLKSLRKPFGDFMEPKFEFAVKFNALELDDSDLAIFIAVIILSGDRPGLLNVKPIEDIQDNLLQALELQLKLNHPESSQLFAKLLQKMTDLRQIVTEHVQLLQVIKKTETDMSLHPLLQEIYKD
The experiment is described as follows: GAL-4 PPAR transactivation assay, agonist activity. The settings on record: 1, 2.5 and 5 μM; HepG2; data not shown.

For a further experiment, the target named is T2, hPPARα (Homo sapiens, UniProt Q07869).
T2 sequence (Q07869 239-466 limits assumed): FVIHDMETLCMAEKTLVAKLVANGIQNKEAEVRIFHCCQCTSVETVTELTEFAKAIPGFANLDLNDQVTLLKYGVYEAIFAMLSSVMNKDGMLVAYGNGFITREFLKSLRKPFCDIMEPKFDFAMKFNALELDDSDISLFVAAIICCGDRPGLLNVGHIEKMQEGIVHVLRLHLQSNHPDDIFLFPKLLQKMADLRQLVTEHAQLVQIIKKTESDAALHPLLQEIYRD
The experiment is described as follows: GAL-4 PPAR transactivation assay, agonist activity. The following applies: 1, 2.5 and 5 μM; HepG2.

The test system of experiment [1] is paraganglioma (PGL) cell lines (PTJ64i, PTJ86i). The experiment is described as follows: MTT cell viability, paraganglioma cell lines. The following applies: Homo sapiens, 72 h, read-out: inhibition rate in the PGL cell lines. It counts as cell-based.
Experiment [2] has as its system colorectal cancer cell lines (HT-29, SW480). The experiment is described as follows: MTT cell viability, colorectal cancer cell lines. The class given is cell-based. The settings on record: Homo sapiens, 72 h, read-out: inhibition rate in the colon cancer cell lines.
Experiment [3] has as its system eight human cancer cell lines (AsPC-1, BxPC-3, Capan-2, HT-29, SW480, PTJ64i, PTJ86i, A498). The experiment is described as follows: MTT cell viability, eight human cancer cell lines, single concentration. It counts as cell-based. The following applies: 75 μM, 72 h.
The next experiment concerns CPT1A. The experiment is described as follows: Expression of PPARα target gene CPT1A by RTqPCR. It counts as cell-based, human. The following applies: HepG2, 48 h; test compounds 0.5 µM, GW7647 2 µM. Background: Real-time PCR tracks product formation cycle by cycle.

On to `CC(C)(Oc1ccc(CCOc2ccc(/N=N/c3ccccc3)cc2)cc1)C(=O)NS(=O)(=O)c1ccccc1` [2b], for which, at hPPARγ, the “agonist activity on PPARγ” value is “no detectable PPARα/γ activity”. Moreover, at hPPARα, the “agonist activity on PPARα” value is recorded as “no detectable PPARα/γ activity”.
As to `CC(C)(Oc1ccc(CCOc2ccc(/N=N/c3ccccc3)cc2)cc1)C(=O)NS(=O)(=O)c1ccc(Cl)cc1` [3c], the inhibition at 75 µM fell in the range of 84 to 98% in experiment [1] and 52 to 98% in experiment [2].
Taken in the same sequence, the figures for `CC(C)(Oc1ccc(CCOc2ccc(/N=N/c3ccccc3)cc2)cc1)C(=O)NS(=O)(=O)c1ccc([N+](=O)[O-])cc1` [3d] were 84 to 98% and 52 to 98%.
Regarding `CC(C)(Oc1ccc(CCOc2ccc(NC(=O)c3ccccc3)cc2)cc1)C(=O)NS(=O)(=O)c1ccccc1` [10e], the inhibition at 75 µM in experiment [1] was in the range of 84 to 98%; in experiment [2], 52 to 98%.
`CCC(=O)NC[C@H](Cc1ccc(OCCc2nc(-c3ccccc3)oc2C)cc1)N/C(C)=C\C(=O)c1ccc(C(F)(F)F)cc1` [GW6471, reference compound]: in experiment [1], the inhibition at 75 µM lay in the range of 85 to 92%. In addition, the “effect on cell viability across the tumor cell lines tested” value in experiment [3] was “showed antiproliferative activities”.
In the case of `CC(C)(Sc1ccc(CCN(CCCCC2CCCCC2)C(=O)NC2CCCCC2)cc1)C(=O)O` [GW7647], in the experiment on CPT1A, the “CPT1A mRNA expression, compound alone” value was “robustly stimulated CPT1A expression”.
As to `Cc1cccc(Nc2cc(Cl)nc(SCC(=O)O)n2)c1C` [Wy-14,643], the “effect on cell viability across the tumor cell lines tested” value in experiment [3] is “did not affect cell viability”.

For orientation: inhibition means how much of the control response was suppressed.
